Experimental data reported in patent publication US20260262643A1, “HERBICIDAL BENZOXAZINES” (FMC CORPORATION, priority 2022, published 2026).

Assays:
kochia [1] = experiment: Test C preemergence; assay type: in vivo, Bassia scoparia; details: Preemergence, 1000 g ai/ha; visual rating after 10 days, 0 to 100 scale (0 no effect, 100 complete control)
Excerpt: (§1) Seeds of plant species selected from barnyardgrass (Echinochloa crusgalli), blackgrass (Alopecurus myosuroides), corn (Zea mays), foxtail, giant (giant foxtail, Setaria faberi), green foxtail (Setaria viridis), goosegrass (Eleusine indica), kochia (Bassia scoparia), oat, wild (wild oat, Avena fatua), pigweed, palmer (palmer amaranth, palmer pigweed, Amaranthus palmeri), Pigweed, Redroot (redroot pigweed, Amaranthus retroflexus), ragweed (common ragweed, Ambrosia artemisiifolia), ryegrass, Italian ([…] ryegrass, Lolium multiflorum), soybean (Glycine max), and wheat (Triticum aestivum) were planted into a blend of loam soil and sand and treated preemergence with a directed soil spray using test chemicals formulated in a non-phytotoxic solvent mixture which included a surfactant. At the same time, plants selected from these crops and weed species and also galium (catchweed bedstraw, Galium aparine) and horseweed (Erigeron canadensis) were planted in pots containing the same blend of loam soil and sand and treated with postemergence applications of test chemicals formulated in the same manner. Plants ranged in height from 2 to 10 cm and were in the one- to two-leaf stage for the postemergence treatment. Treated plants and untreated controls were maintained in a greenhouse for 10 days, after which time all treated plants were compared to untreated controls and visually evaluated for injury. Plant response ratings, summarized in Table C, are based on a 0 to 100 scale where 0 is no effect and 100 is complete control. A dash (-) response means no test result.

blackgrass [2] = experiment: Test C preemergence; assay type: in vivo, Alopecurus myosuroides; details: Preemergence, 1000 g ai/ha; visual rating after 10 days, 0 to 100 scale (0 no effect, 100 complete control)
Excerpt: as §1

pigweed, palmer [3] = experiment: Test C preemergence; assay type: in vivo, Amaranthus palmeri; details: Preemergence, 1000 g ai/ha; visual rating after 10 days, 0 to 100 scale (0 no effect, 100 complete control)
Excerpt: as §1

ragweed [4] = experiment: Test C preemergence; assay type: in vivo, Ambrosia artemisiifolia; details: Preemergence, 1000 g ai/ha; visual rating after 10 days, 0 to 100 scale (0 no effect, 100 complete control)
Excerpt: as §1

galium = experiment: Test C postemergence; assay type: in vivo, Galium aparine; details: Postemergence, 1000 g ai/ha
Excerpt: as §1

blackgrass [5] = experiment: Test C postemergence; assay type: in vivo, Alopecurus myosuroides; details: Postemergence, 1000 g ai/ha
Excerpt: as §1

horseweed = experiment: Test C postemergence; assay type: in vivo, Erigeron canadensis; details: Postemergence, 1000 g ai/ha
Excerpt: as §1

ragweed [6] = experiment: Test C postemergence; assay type: in vivo, Ambrosia artemisiifolia; details: Postemergence, 1000 g ai/ha
Excerpt: as §1

ryegrass, Italian [7] = experiment: Test C postemergence; assay type: in vivo, Lolium multiflorum; details: Postemergence, 1000 g ai/ha
Excerpt: as §1

ryegrass, Italian [8] = experiment: Test C preemergence; assay type: in vivo, Lolium multiflorum; details: Preemergence, 1000 g ai/ha; visual rating after 10 days, 0 to 100 scale (0 no effect, 100 complete control)
Excerpt: as §1

green foxtail [9] = experiment: Test C postemergence; assay type: in vivo, Setaria viridis; details: Postemergence, 1000 g ai/ha
Excerpt: as §1

kochia [10] = experiment: Test C postemergence; assay type: in vivo, Bassia scoparia; details: Postemergence, 1000 g ai/ha
Excerpt: as §1

barnyardgrass [11] = experiment: Test C postemergence; assay type: in vivo, Echinochloa crusgalli; details: Postemergence, 1000 g ai/ha
Excerpt: as §1

barnyardgrass [12] = experiment: Test C preemergence; assay type: in vivo, Echinochloa crusgalli; details: Preemergence, 1000 g ai/ha; visual rating after 10 days, 0 to 100 scale (0 no effect, 100 complete control)
Excerpt: as §1

green foxtail [13] = experiment: Test C preemergence; assay type: in vivo, Setaria viridis; details: Preemergence, 1000 g ai/ha; visual rating after 10 days, 0 to 100 scale (0 no effect, 100 complete control)
Excerpt: as §1

pigweed, palmer [14] = experiment: Test C postemergence; assay type: in vivo, Amaranthus palmeri; details: Postemergence, 1000 g ai/ha
Excerpt: as §1

[15] = 10 days, visual 0 to 100 scale (0 no effect, 100 complete control)
[16] = 0 to 100 scale, 0 no effect, 100 complete control

Row | SMILES | Plant response rating, Kochia (kochia [1]) | Plant response rating, Blackgrass (blackgrass [2]) | Plant response rating, Pigweed, Palmer (pigweed, palmer [3]) | Plant response rating, Ragweed (ragweed [4]) | Plant response rating, Galium (galium; [15]) | Plant response rating, Blackgrass (blackgrass [5]; [15]) | Plant response rating, Horseweed (horseweed; [15]) | Plant response rating, Ragweed (ragweed [6]; [15]) | Plant response rating, Ryegrass, Italian (ryegrass, Italian [7]; [15]) | Plant response rating, Ryegrass, Italian (ryegrass, Italian [8]) | Plant response rating, Foxtail, Green (green foxtail [9]; [15]) | Plant response rating, Kochia (kochia [10]; [15]) | Plant response rating, Barnyardgrass (barnyardgrass [11]; [15]) | Plant response rating, Barnyardgrass (barnyardgrass [12]) | Plant response rating, Foxtail, Green (green foxtail [13]) | Plant response rating, Pigweed, Palmer (pigweed, palmer [14]; [15]) | Plant response rating, Barnyardgrass (barnyardgrass [11]; [16]) | also measured
1 | Cc1cc(-c2cccc(C(=O)N3C[C@H](C)Oc4c(Cl)cccc43)c2)sn1 [Compound 389] | 90 | 30 | 70 | 20 | 90 | 10 | 0 | 30 | 0 | 60 | 70 | 80 | 70 | 70 | 100 | 90 | – | –
2 | C[C@H]1CN(C(=O)c2cccc(-c3cncc(Cl)c3)c2)c2cccc(Cl)c2O1 [Compound 384] | 0 | 0 | 30 | 0 | 40 | 10 | 0 | 0 | 0 | 0 | 10 | 50 | 10 | 0 | 30 | 60 | – | –
3 | Cc1cc(-c2cccc(C(=O)N3C[C@H](C)Oc4c(C)cccc43)c2)cnn1 [Compound 209] | 0 | 0 | 0 | 0 | 40 | 0 | 20 | 0 | 0 | 30 | 0 | 0 | – | 0 | 0 | 0 | 0 | –
4 | C[C@H]1CN(C(=O)c2cccc(N3CCOCC3)c2)c2cccc(Cl)c2O1 [Compound 166] | 0 | 0 | 0 | 0 | – | – | – | – | – | 0 | – | – | – | 0 | 0 | – | 0 | Plant response rating, Galium (galium; [16]): 20; Plant response rating, Blackgrass (blackgrass [5]; [16]): 0; Plant response rating, Horseweed (horseweed; [16]): 0; Plant response rating, Ragweed (ragweed [6]; [16]): 0; Plant response rating, Ryegrass, Italian (ryegrass, Italian [7]; [16]): 0; Plant response rating, Foxtail, Green (green foxtail [9]; [16]): 0; Plant response rating, Kochia (kochia [10]; [16]): 0; Plant response rating, Pigweed, Palmer (pigweed, palmer [14]; [16]): 10
5 | CCOC(=O)c1cncn1-c1cccc(C(=O)N2C[C@H](C)Oc3c(C)cccc32)c1 [Compound 298] | 50 | 0 | 40 | 0 | 20 | 0 | 0 | 40 | 0 | 0 | 0 | 0 | 0 | 0 | 30 | 0 | – | –
6 | Cc1ccn(-c2cccc(C(=O)N3C[C@H](C)Oc4c(Cl)cccc43)c2)n1 [Compound 206] | 10 | 0 | 30 | 0 | 40 | 0 | 0 | 0 | 40 | 80 | 0 | 20 | – | 30 | 20 | 50 | 0 | –
7 | Cc1ccc(-c2cccc(C(=O)N3C[C@H](C)Oc4c(Cl)cccc43)c2)o1 [Compound 204] | 20 | 0 | 10 | 0 | – | – | – | – | – | 40 | – | – | – | 0 | 0 | – | 0 | Plant response rating, Galium (galium; [16]): 50; Plant response rating, Blackgrass (blackgrass [5]; [16]): 0; Plant response rating, Horseweed (horseweed; [16]): 0; Plant response rating, Ragweed (ragweed [6]; [16]): 20; Plant response rating, Ryegrass, Italian (ryegrass, Italian [7]; [16]): 0; Plant response rating, Foxtail, Green (green foxtail [9]; [16]): 0; Plant response rating, Kochia (kochia [10]; [16]): 0; Plant response rating, Pigweed, Palmer (pigweed, palmer [14]; [16]): 10
8 | Cc1cccc2c1O[C@@H](C)CN2C(=O)c1cccc(-n2cnc(Cl)c2)c1 [Compound 304] | 10 | 70 | 70 | 0 | 70 | 30 | 0 | 0 | 0 | 90 | 20 | 40 | 10 | 60 | 100 | 20 | – | –
